{"source": "patent EP3390415B1", "about": "“(R)- AND (S)-1-(3-(3-N,N-DIMETHYLAMINOCARBONYL)PHENOXYL-4-NITROPHENYL)-1-ETHYL-N,N'-BIS (ETHYLENE)PHOSPHORAMIDATE, COMPOSITIONS AND METHODS FOR THEIR USE AND PREPARATION” (OBI PHARMA, INC., priority 2015, dated 2017)", "key": {"[1]": {"biological_target": "Recombinant human AKR1C3 (Homo sapiens, UniProt P42330)", "sequence (P42330 whole entry)": "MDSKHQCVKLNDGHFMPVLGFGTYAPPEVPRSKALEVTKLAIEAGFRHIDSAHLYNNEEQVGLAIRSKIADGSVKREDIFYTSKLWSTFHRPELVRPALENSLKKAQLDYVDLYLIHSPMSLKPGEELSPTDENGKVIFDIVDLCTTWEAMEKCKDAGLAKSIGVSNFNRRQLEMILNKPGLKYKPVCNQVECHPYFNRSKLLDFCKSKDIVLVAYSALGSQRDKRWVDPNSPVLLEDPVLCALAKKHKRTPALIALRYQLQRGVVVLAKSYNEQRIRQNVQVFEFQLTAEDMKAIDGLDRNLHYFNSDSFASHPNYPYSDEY", "assay": "Activation by the aldoketo reductase AKR1C3", "format": "biochemical", "conditions": "5 µM, 2 mM NADPH, 37 °C, up to 120 min; FIG. 2", "protocol": "Recombinant human AKR1C3 was diluted to 25 µg/mL in phosphate buffered saline (PBS), pH 7.4 (37 °C), containing 2 mM NADPH. TH2870 or progesterone (positive control) in 30% methanol/70% water was added to the reaction mixture at a final concentration of 5 µM and incubated at 37 °C for 120 minutes. At various times up to 120 min, 50 µL of the reaction mixture was taken and 200 µL acetonitrile containing propranolol as internal standard was added, vortex-mixed and centrifuged for 10 min. The resulting supernatant (5 µL) was injected into a LC/MS/MS for quantitation of % remaining TH 2870 and progesterone. The compounds were tested in duplicates."}, "[2]": {"assay": "Acute toxicity study in monkeys, body weight", "format": "in vivo, Cynomolgus monkeys", "parameters": "unit not given here", "conditions": "2 mg/kg IV infusion", "protocol": "(§1) TH 3423 and TH 3424 were tested in no naive monkeys (1 male and one female for each compound at 2 mg/kg) with 30-min intravenous infusion, TK sampling: on Day 1 and Day 15: 0.25, 0.5, 0.75, 1 and 2 hr post infusion initiation. Serum chemistry and hematology: pre-dose (Day 1), day 5, day 8 (pre-dose), day 15 (pre-dose), day 22 and day 28. Clinical observation: Daily during the study, total 35 days. Food consumption: Daily during the study, total 35 days. Bodyweight measurement: Twice weekly for five weeks."}, "[3]": {"test_system": "PLCPRF5", "assay": "In vitro human tumor cell line cytotoxicity assay", "format": "cell-based", "conditions": "for IC50: Homo sapiens"}, "[4]": {"test_system": "C3A", "assay": "In vitro human tumor cell line cytotoxicity assay", "format": "cell-based", "conditions": "for IC50: Homo sapiens"}, "[5]": {"assay": "Pharmacokinetics (TK) after 30-min IV infusion in monkeys", "format": "in vivo, Cynomolgus monkeys", "conditions": "2 mg/kg 30-min IV infusion; for MRT inf / clearance / half-life / Vd / concentration at 0.25 hr / concentration at 0.5 hr / concentration at 0.75 hr / concentration at 1 hr / concentration at 2 hr: cynomolgus monkey, plasma; for half-life: read-out: Terminal t1/2 (converted); for Vd: read-out: Vss", "protocol": "as §1"}, "[6]": {"test_system": "Vcap", "assay": "In vitro human tumor cell line cytotoxicity assay", "format": "cell-based", "conditions": "for IC50: Homo sapiens, VCaP"}, "[7]": {"test_system": "HepG2", "assay": "In vitro human tumor cell line cytotoxicity assay", "format": "cell-based", "conditions": "for IC50: Homo sapiens"}, "[8]": {"test_system": "HCCC9810", "assay": "In vitro human tumor cell line cytotoxicity assay", "format": "cell-based", "conditions": "for IC50: Homo sapiens"}, "[9]": {"test_system": "LIXC012", "assay": "In vitro human tumor cell line cytotoxicity assay", "format": "cell-based", "conditions": "for IC50: Homo sapiens"}, "[10]": {"test_system": "SNU-387", "assay": "In vitro human tumor cell line cytotoxicity assay", "format": "cell-based", "conditions": "for IC50: Homo sapiens"}, "[11]": {"test_system": "H460 cells", "assay": "In vitro proliferation assay, H460", "format": "cell-based", "conditions": "Homo sapiens, NCI-H460; 2 hrs exposure, wash, additional 70hrs, AlamarBlue; read-out: IC 50 in proliferation assay in H460 cells", "protocol": "In vitro proliferation data on the H460 […] human tumor cell line is reported above in the compound table. IC50 values are reported in micromolar and result from exposure of compound at various concentrations for 2 hrs followed by a wash step and addition of fresh media followed by growth and cell viability staining and comparison to a media only treated control.\nSpecifically, exponentially growing cells were seeded at a density of 4 x 10^3 cells per well in a 96 well plate and incubated at 37°C in 5% CO2, 95% air and 100% relative humidity for 24 hours prior to addition of test compounds. Compounds were solubilized in 100% DMSO at 200 times the desired final test concentration. At the time of drug addition, compounds were further diluted to 4 times the desired final concentration with complete medium. Aliquots of 50 µl of compound at specified concentrations were added to microtiter wells already containing 150 µl of medium, resulting in the final drug concentration reported. After drug addition, the plates were incubated for an additional 2 hours at 37°C, 5% CO2, 95% air, and 100% relative humidity, then the drug was washed off and fresh medium was added and the plates were incubated for addition 70hrs at 37 °C, 5% CO2, 95% air and 100% relative humidity. At the end of this incubation, the viable cells were quantified using the AlamarBlue assay. The drug concentration resulting in growth inhibition of 50% (IC50) was calculated using Prism software (Irvine, CA), and the results were listed in the table."}, "[12]": {"conditions": "both sexes, mean, read-out: Plasma concentration, Mean"}, "[13]": {"conditions": "female, read-out: Plasma concentration"}, "[14]": {"conditions": "male, read-out: Plasma concentration"}}, "note": "Where two headings read alike, the source gives them in different places."}
{"smiles": "CC(=O)[C@H]1CC[C@H]2[C@@H]3CCC4=CC(=O)CC[C@]4(C)[C@H]3CC[C@]12C", "note": "[Progesterone, reference compound]", "values": [{"measurement": "disappearance of compound (% remaining) in the presence of AKR1C3", "setting": "[1]", "result": "reduced slowly"}]}
{"smiles": "C[C@@H](OP(=O)(N1CC1)N1CC1)c1ccc([N+](=O)[O-])c(Oc2cccc(C(=O)N(C)C)c2)c1", "note": "(single isomer, unassigned) [TH3423]", "values": [{"measurement": "body weight", "setting": "[2]; Mean, Day 1", "result": 3.50}, {"measurement": "body weight", "setting": "[2]; Mean, Day 4", "result": 3.39}, {"measurement": "body weight", "setting": "[2]; Mean, Day 8", "result": 3.32}, {"measurement": "body weight", "setting": "[2]; Mean, Day 11", "result": 2.96}, {"measurement": "body weight", "setting": "[2]; female, Day 1", "result": 3.65}, {"measurement": "body weight", "setting": "[2]; female, Day 4", "result": 3.55}, {"measurement": "body weight", "setting": "[2]; female, Day 8", "result": 3.41}, {"measurement": "body weight", "setting": "[2]; female, Day 11", "result": 2.96}, {"measurement": "body weight", "setting": "[2]; male, Day 1", "result": 3.35}, {"measurement": "body weight", "setting": "[2]; male, Day 4", "result": 3.23}, {"measurement": "body weight", "setting": "[2]; male, Day 8", "result": 3.23}, {"measurement": "body weight", "setting": "[2]; male, Day 11", "result": 2.95}, {"measurement": "Max Inhibition%", "setting": "[3]", "result": 77.7, "unit": "%"}, {"measurement": "Min Inhibition%", "setting": "[3]", "result": -4.9, "unit": "%"}, {"measurement": "IC50", "setting": "[3]; PLC-PRF-5, read-out: AbsIC50", "result": 207, "unit": "nM"}, {"measurement": "IC50", "setting": "[3]; PLC-PRF-5, read-out: RelIC50", "result": 156, "unit": "nM"}, {"measurement": "Max Inhibition%", "setting": "[4]", "result": 98.5, "unit": "%"}, {"measurement": "Min Inhibition%", "setting": "[4]", "result": 5.4, "unit": "%"}, {"measurement": "IC50", "setting": "[4]; read-out: AbsIC50", "result": 11.7, "unit": "nM"}, {"measurement": "IC50", "setting": "[4]; read-out: RelIC50", "result": 9.6, "unit": "nM"}, {"measurement": "AUCINF", "setting": "[5]; Mean", "result": 770, "unit": "hr^∗ng/mL"}, {"measurement": "AUClast", "setting": "[5]; Mean", "result": 766, "unit": "hr^∗ng/mL"}, {"measurement": "MRT inf", "setting": "[5]; both sexes, Mean", "result": 12.2, "unit": "min"}, {"measurement": "clearance", "setting": "[5]; both sexes, Mean", "result": 43.3, "unit": "mL/min/kg"}, {"measurement": "half-life", "setting": "[5]; both sexes, Mean", "result": 7.74, "unit": "min"}, {"measurement": "Vd", "setting": "[5]; both sexes, Mean", "result": 0.527, "unit": "L/kg"}, {"measurement": "concentration at 0.25 hr", "setting": "[5]; [12]", "result": 1210, "unit": "ng/mL"}, {"measurement": "concentration at 0.5 hr", "setting": "[5]; [12]", "result": 1400, "unit": "ng/mL"}, {"measurement": "concentration at 0.75 hr", "setting": "[5]; [12]", "result": 336, "unit": "ng/mL"}, {"measurement": "concentration at 1 hr", "setting": "[5]; [12]", "result": 70, "unit": "ng/mL"}, {"measurement": "concentration at 2 hr", "setting": "[5]; both sexes, mean, 2 hr, read-out: Plasma concentration, Mean", "result": 1.03, "unit": "ng/mL"}, {"measurement": "concentration at 0.25 hr", "setting": "[5]; [13]", "result": 1320, "unit": "ng/mL"}, {"measurement": "concentration at 0.5 hr", "setting": "[5]; [13]", "result": 1370, "unit": "ng/mL"}, {"measurement": "concentration at 0.75 hr", "setting": "[5]; [13]", "result": 313, "unit": "ng/mL"}, {"measurement": "concentration at 1 hr", "setting": "[5]; [13]", "result": 55, "unit": "ng/mL"}, {"measurement": "MRT inf", "setting": "[5]; female", "result": 10.8, "unit": "min"}, {"measurement": "clearance", "setting": "[5]; female", "result": 43.5, "unit": "mL/min/kg"}, {"measurement": "half-life", "setting": "[5]; female", "result": 6.48, "unit": "min"}, {"measurement": "Vd", "setting": "[5]; female", "result": 0.469, "unit": "L/kg"}, {"measurement": "concentration at 0.25 hr", "setting": "[5]; [14]", "result": 1100, "unit": "ng/mL"}, {"measurement": "concentration at 0.5 hr", "setting": "[5]; [14]", "result": 1420, "unit": "ng/mL"}, {"measurement": "concentration at 0.75 hr", "setting": "[5]; [14]", "result": 359, "unit": "ng/mL"}, {"measurement": "concentration at 1 hr", "setting": "[5]; [14]", "result": 85, "unit": "ng/mL"}, {"measurement": "concentration at 2 hr", "setting": "[5]; male, 2 hr, read-out: Plasma concentration", "result": 1.03, "unit": "ng/mL"}, {"measurement": "MRT inf", "setting": "[5]; male", "result": 13.6, "unit": "min"}, {"measurement": "clearance", "setting": "[5]; male", "result": 43.2, "unit": "mL/min/kg"}, {"measurement": "half-life", "setting": "[5]; male", "result": 9, "unit": "min"}, {"measurement": "Vd", "setting": "[5]; male", "result": 0.584, "unit": "L/kg"}, {"measurement": "Plasma concentration", "setting": "[5]; female, 2 hr", "result": "BQL"}, {"measurement": "AUCINF", "setting": "[5]; female", "result": 766, "unit": "hr^∗ng/mL"}, {"measurement": "AUClast", "setting": "[5]; female", "result": 758, "unit": "hr^∗ng/mL"}, {"measurement": "AUCINF", "setting": "[5]; male", "result": 774, "unit": "hr^∗ng/mL"}, {"measurement": "AUClast", "setting": "[5]; male", "result": 773, "unit": "hr^∗ng/mL"}, {"measurement": "IC50", "setting": "[6]; read-out: AbsIC50", "result": 21.6, "unit": "nM"}, {"measurement": "IC50", "setting": "[6]; read-out: RelIC50", "result": 26.6, "unit": "nM"}, {"measurement": "Max Inhibition%", "setting": "[6]; Vcap", "result": 101.0, "unit": "%"}, {"measurement": "Min Inhibition%", "setting": "[6]; Vcap", "result": 1.1, "unit": "%"}, {"measurement": "Max Inhibition%", "setting": "[7]", "result": 99.5, "unit": "%"}, {"measurement": "Min Inhibition%", "setting": "[7]", "result": -7.2, "unit": "%"}, {"measurement": "IC50", "setting": "[7]; read-out: AbsIC50", "result": 18.7, "unit": "nM"}, {"measurement": "IC50", "setting": "[7]; read-out: RelIC50", "result": 13.1, "unit": "nM"}, {"measurement": "Max Inhibition%", "setting": "[8]", "result": 93.7, "unit": "%"}, {"measurement": "Min Inhibition%", "setting": "[8]", "result": 0.0, "unit": "%"}, {"measurement": "IC50", "setting": "[8]; read-out: AbsIC50", "result": 18.7, "unit": "nM"}, {"measurement": "IC50", "setting": "[8]; read-out: RelIC50", "result": 16.8, "unit": "nM"}, {"measurement": "Max Inhibition%", "setting": "[9]", "result": 84.8, "unit": "%"}, {"measurement": "Min Inhibition%", "setting": "[9]", "result": -1.1, "unit": "%"}, {"measurement": "IC50", "setting": "[9]; read-out: AbsIC50", "result": 16.9, "unit": "nM"}, {"measurement": "IC50", "setting": "[9]; read-out: RelIC50", "result": 8.1, "unit": "nM"}, {"measurement": "Max Inhibition%", "setting": "[10]", "result": 99.8, "unit": "%"}, {"measurement": "Min Inhibition%", "setting": "[10]", "result": 1.3, "unit": "%"}, {"measurement": "IC50", "setting": "[10]; read-out: AbsIC50", "result": 39.7, "unit": "nM"}, {"measurement": "IC50", "setting": "[10]; read-out: RelIC50", "result": 46.3, "unit": "nM"}, {"measurement": "IC50", "setting": "[11]", "result": 5, "unit": "nM"}]}
